{"source": "ChEMBL document CHEMBL1136374", "about": "“Inactivation of S-adenosyl-L-homocysteine hydrolase with novel 5'-thioadenosine derivatives. Antiviral effects” (Bioorg Med Chem Lett, 2003)", "test_system": "Vaccinia virus", "assay": "Cytopathogenicity against vaccinia virus", "format": "functional", "settings": "Orthopoxvirus vaccinia", "data": [{"compound": "C=CSC[C@H]1OC(n2cnc3c(N)ncnc32)[C@H](O)[C@@H]1O", "note": "(stereo partly specified)", "values": [{"measurement": "MIC", "result": 30, "unit": "µM"}]}]}
